Results as given in patent US20220111019A1, “BRCA1 MODULATING COMPOUNDS, FORMULATIONS THEREOF, AND USES THEREOF” (VIRGINIA TECH INTELLECTUAL PROPERTIES, INC., priority 2018, published 2022).
Entries after “also recorded” stand apart in the source; their conditions may differ.

Legend:
p53 = experiment: Ubiquitin ligase assay in T98G nuclear extracts; type: biochemical, human; details: T98G nuclear reaction mixtures, 37° C., 1 hour, vs control samples
Protocol: Ubiquitin ligase assay. Aliquots of DUB-treated or “restored” BRCA1-BARD1 (0.2 mg/ml) were incubated with 10 μM ML364 (USP2 inhibitor) at 37° C. for 1 hour to halt USP2 activity. Samples were then stored overnight at 4° C. The restored BRCA1-BARD1 fractions were added in varying amounts to soluble nuclear extracts prepared from T98G cells. T98G cells naturally produced low levels of BRCA1. Control samples lacked restored BRCA1-BARD1. The reaction mixtures were incubated in a water bath at 37° C. for 1 hour.
Wild-type p53-caught in the act of repair. The extent to which restored BRCA1 could enhance the ubiquitin ligase activity of cells with inherently low levels of BRCA1 (T98G line) (FIGS. 16A-16C) was evaluated. Quantities of restored BRCA1-BARD1 were added to nuclear reaction mixtures prepared from T98G cells, and changes in ubiquitination were assessed over multiple experiments (FIG. 12A). To simplify the results, modifications to the p53 monomer was first evaluated. According to Western blots, full-length p53 migrated at about 50 kDa while ubiquitnated monomers migrated close to about 68 kDa (FIGS. 12B and 16A-16C). Proteins receiving K63-linked ubiquitin adducts are often involved in autophagy and DNA repair (22), (23), (24). […] As the T98G cells naturally produced little BRCA1, we attributed the increase in ubiquitin ligase activity to the restored BRCA1-BARD1 supplement.

HCC1937 cells [1] = experiment: MTS cell viability assay after H2O2 and/or ML364 treatment; type: cell-based, human; details: 1 mM H2O2 10 min, vs untreated cells
Protocol: (§1) Cell viability and proliferation assays. To determine cellular viability, we used the CellTiter 96® AQueous One Solution Cell Proliferation Assay (MTS; Promega). HCC1937 were seeded (about 4000 cells per well) in a 96-well plate at 37° C. and 5% CO2 overnight. Following a 10-minute incubation with culture media containing 1 mM H2O2, cells were washed with PBS solution and further treated with 7 μM ML364 for 24 hours at 37° C. with 5% CO2. Control cells were cultured in media lacking H2O2 and/or ML364 during the same time period. Culture media and containing MTS reagent was added to each well. The titer plate was incubated 37° C. and 5% CO2 for 1-4 hours. Absorbance values were measured at 490 nm using iMark microplate reader (Bio-Rad). MTS was also used to determine cell growth following ML364 treatment. HCC1937 cells were plated (about 1500 cells per well) in a 96-well plate at 37° C. and 5% CO2 overnight. Cells were treated with DMSO and ML364 at the different doses (2.5 μM-80 μM). After 3 days of incubation, cell viability was measured using the MTS reagent. Cellular survival was calculated by dividing the absorbance of the treated groups by those of the untreated groups (DMSO). Values for the half-maximal inhibitory concentration (IC50) were obtained using Prism software package (GraphPad).
Targeting cancer cells that express mutated BRCA1. As described elsewhere herein, mutated BRCA1 can be fine-tuned in vitro. The application of this aspect of the techology to treat cancer cells was evaluated. Enhancing the activity of tumor suppressors in healthy cells can facilitate their growth and resilience. Conversely, treating cancer cells with drugs that limit DNA repair may lessen their survival. Poly(ADP-Ribose) Polymerase (PARP) inhibitors have been used to treat BRCA1-related cancers (25-28). A limited-repair paradigm approach was developed and used treated breast cancer cells (HCC1937 line) with the DUB inhibitor, ML364 (Axon Ligands™). […] The viability of treated cells and untreated cells was quantified using MTS assay measurements.

[2] = tested on: 8-Oxo-Guanine (8-Oxo-G) accumulation in HCC1937 cells; experiment: Immunofluorescence detection of 8-Oxo-Guanine DNA lesions; type: cell-based, human; details: for 8-Oxo-G accumulation in and around the nucleus: single treatment (ML364 in IC50 range or 1 mM H2O2 10 minutes)
Protocol: Fluorescence microscopy. The production of 8-Oxo-Guanine (8-Oxo-G) DNA lesions was detected by fluorescence imaging as previously described (10, 11). Briefly, HCC1937 cells (about 40,000 cells/chamber) were plated in an eight-chamber slide and incubated at 37° C. and 5% CO2 overnight. Cells were treated with complete culture media containing 1 mM H2O2 for 10-20 minutes to induce oxidative damage in the nucleus. Cells were then wash with 1× PBS and treated with ML364 (7 μM-9 μM) for up to 48 hours at 37° C. and 5% CO2. Control cells were cultured in media without H2O2 and ML364 during the same time period. Cells were washed with standard PBS solution and fixed with 4% paraformaldehyde (Electron Microscopy Sciences) for 15 minutes. The fixed cells were permiabilized by PBS solution containing 0.5% Triton X-100 (Sigma) for 10 minutes. After 1-hour blocking step with PBS supplemented with 10% normal goat serum (Jackson Immuno Research) and 0.2% Triton X-100, cells were incubated with anti-8-OxoG DNA Lesion (483.15; Santa Cruz Biotechnology) at 4° C. overnight. The 8-OxoG DNA lesions were detected with goat anti-mouse IgM-TR (Santa Cruz Biotechnology) and nuclei were stained with Hoechst 33342. An inverted fluorescence microscope (Zeiss Axio Vert.A1; Carl Zeiss Microscopy) was used to image the cells.
To determine the effect of ML364 on genomic stability, we performed immunofluorescent imaging on HCC1937 breast cancer cells to detect 8-Oxo-Guanine (8-Oxo-G) (FIG. 13C). The nuclear accumulation of 8-Oxo-G in cells indicates deficiencies in DNA damage repair (10, 11). Cells were treated with H2O2 to induce oxidative DNA damage. The ML364 drug was then administered to the cells in the IC50 range. The accumulation of 8-Oxo-G was detected using monoclonal antibodies against the substrate and fluorescently-labeled secondary antibodies. […] Under oxidative stress conditions, there was a minor degree of 8-Oxo-G detected in nuclear region following 10 minutes of treatment. […]

BARD1 = details: HCC70 cells, 1 mM H2O2, replicate experiments
Protocol: (§2) Authentication of cells, cell culture, and protein enrichment. Breast cancer cells (HCC70 and HCC1937 lines) used in this study were purchased from the American Type Culture Collection (ATCC) and independently characterized by ATCC as being triple negative primary ductal carcinoma cells. For all experiments, cells were promptly used within 6 months of resuscitation. Cells were cultured in RPMI-1640 (Mediatech) supplemented with 10% fetal bovine serum (ATCC) and 0.5× penicillin-streptomycin (Thermo Fisher) at 37° C. and 5% CO2 environment. BRCA1-BARD1 complexes were enriched as previously described (25). Briefly, about 1,000,000 cells were collected using Trypsin-EDTA (Thermo Fisher) followed by centrifugation (500×g, 5 minutes). For experiments involving hydrogen peroxide (H2O2), cells were collected with cell scrapers after treated with 1 mM of H2O2 (Sigma Aldrich) for 40 minutes at 37° C. and 5% CO2. Sub-cellular fractions (cytoplasmic and nuclear) were separated using the NE-PER kit (Thermo Scientific). The soluble nuclear material was incubated with Ni-NTA agarose beads (Qiagen) and incubated with rotation for 1 hour at 4° C. The beads were washed with five bed volumes of 20 mM HEPES buffer (pH 7.2, 140 mM NaCl, 2 mM CaCl2, 2 mM MgCl2 and 5 mM imidazole).

BRCA1 = details: HCC70 cells, 1 mM H2O2, replicate experiments
Protocol: as §2

mutated BRCA1 = experiment: Western blot quantification of BRCA1 in lysates of treated HCC1937 cells; type: cell-based, human; details: HCC1937 cell lysates; for decrease in BRCA1 level: single treatment (ML364 or H2O2)
Protocol: (§3) Cell lysate preparations. For whole cell lysate preparations, HCC1937 cells were treated by adding 1 mM H2O2 to the culture media for 10-20 minutes, while incubating cells at 37° C. and 5% CO2. Following each incubation time, cells were washed with 1× PBS (Sigma) to eliminate residual H2O2. The cells were then treated with 7 μM-9 μM ML364 (Axon Medchem) for up to 48 hours at 37° C. and 5% CO2. Control cells were cultured in media lacking H2O2 and/or ML364 during the same time period. Cells were collected and washed with ice-cold 1× PBS once followed by centrifugation at 500×g for 5 minutes. Cell pellets were lysed by resuspending the pellets in buffer solution containing 20 mM HEPES (pH 6.8), 150 mM NaCl, 2.5 mM CaCl2, 2.5 mM MgCl2, 1 mM EDTA, 2% Nonidet-P40 (NP40), 1% Nadeoxycholate, 2× protease inhibitors (Sigma), 1× phosphatase inhibitors (Sigma), and 8% glycerol. The lysis mixture was incubated on ice for 30 minutes and centrifuged at 21,000×g for 15 minutes at 4° C. The supernatants were collected and protein concentrations were quantified using the standard Pierce Bradford assay.
(§4) SDS-Page, immunoblotting, and densitometry measurements. Protein fractions were also analyzed by SDS-PAGE denaturing gels followed by staining with SimplyBlue SafeStain solution (Invitrogen) or Western blotting as previously described (10). For Western blot analysis, the following primary antibodies were used: BRCA1 (C-20; Santa Cruz Biotechnology, sc-642), ubiquitin-pAb (Enzo Life Sciences, ADI-SPA-200), p53 (DO-1; Santa Cruz Biotechnology, sc-126), K63-linkage specific polyubiquitin (D7A11; Cell Signaling, #5621) and p-actin (Sigma-Aldrich, A5441). Western blot quantification was performed using Image Labrm Software (Bio-Rad). The intensity of each band was selected using the volume tool. Local subtraction and linear regression methods were implemented to eliminate the local background values and to quantify the band intensities.

p53R306 = experiment: Western blot quantification of p53 in lysates of treated HCC1937 cells; type: cell-based, human; details: HCC1937 cell lysates; for decrease in p53 level: single treatment (ML364 or H2O2)
Protocol: as §3, §4

HCC1937 cells [3] = experiment: MTS cell growth assay after ML364 treatment (IC50); type: cell-based, human; details: 3 days of incubation, doses 2.5 μM-80 μM, read-out: half maximal inhibitory concentration (IC50) range
Protocol: as §1, with “Cells were treated with DMSO and ML364 at the different doses (2.5 μM-80 μM).” left out, “Values for the half-maximal inhibitory concentration (IC50) were obtained using Prism software package (GraphPad).” left out
Targeting cancer cells that express mutated BRCA1. […] The application of this aspect of the techology to treat cancer cells was evaluated. […] The viability of treated cells and untreated cells was quantified using MTS assay measurements.

Row | increase in K63-type ubiquitin adducts on p53 (ubiquitination of p53) (p53) | IC50 (HCC1937 cells [3]) | Molecule | cytotoxicity at 1000 µM (HCC1937 cells [1]; Homo sapiens, ML364 and H2O2 given separately, 7 μM ML364 24 hours, read-out: decrease in viability) | 8-Oxo-G accumulation in and around the nucleus [2] | decrease in BARD1 level (BARD1) | decrease in BRCA1 level (BRCA1) | decrease in BRCA1 level (mutated BRCA1) | decrease in p53 level (p53R306) | decline in viability, combined treatment (HCC1937 cells [1]; then 7 μM ML364 24 hours) | decrease in viability (HCC1937 cells [1]; ML364 and H2O2 given separately, 7 μM ML364 24 hours) | 8-Oxo-G accumulation, combination of H2O2 and ML364 ([2]; 1 mM H2O2 then ML364 in IC50 range, up to 48 hours) | decline in BRCA1 level, combination of H2O2 and ML364 (mutated BRCA1; H2O2 then ML364) | decline in p53 level, combination of H2O2 and ML364 (p53R306; H2O2 then ML364)
1 | about 24% | – | wild-type BRCA1-BARD1: wild type BRCA1-BARD1 heterodimer used as supplement for comparison | – | – | – | – | – | – | – | – | – | – | –
2 | – | – | OO [H2O2, hydrogen peroxide] | ~50% | minor degree | 10-20% | 10-20% | 15-20% | 15-20% | – | – | – | – | –
3 | – | 7 to 10 µM | Cc1ccc(S(=O)(=O)Nc2cc(C(F)(F)F)ccc2C(=O)Nc2nc(-c3ccccc3)cs2)cc1 [ML364] | – | more abundant; also recorded: higher level | – | – | about 30% | about 30% | about 70% | about 50% | greatest 8-Oxo-G buildup; also recorded: greatest degree; also recorded: higher level | about 50% | about 50%
